In EP0104572A1, “Benzyl ethers of phenol Mannich bases, process for their production, their use and pharmaceutical preparations based on these compounds, intermediates and process for their production” (priority 1982, dated 1984):
Where two headings read alike, the source gives them in different places.

Experiments:
Serum-Lipoproteine = test: Change of serum and lipoprotein-fraction cholesterol in rats after 7 days of oral treatment (ultracentrifuge fractionation, CHOD-PAP cholesterol); type: in vivo, männlichen Wistar-Ratten; details: Rattus norvegicus, 168 h, oral (gavage), 7 days, male Wistar rats; for change in vivo at 3 mg/kg: 3 mg/kg / Tag; for change in vivo at 10 mg/kg: 10 mg/kg / Tag; for change in vivo at 30 mg/kg: 30 mg/kg / Tag; for change in vivo at 1 mg/kg: 1 mg/kg / Tag; for change in vivo at 20 mg/kg: 20 mg/kg / Tag
From the text: (§1) Die Wirkung der angeführten Verbindungen auf die Serum- Lipoproteine wurde an männlichen Wistar-Ratten untersucht, die 7 Tage per Schlundsonde mit den angeführten in Polyäthylenglykol 400 suspendierten Verbindungen behandelt wurden. Außerdem wurde eine Kontrollgruppe, die nur das Lösungsmittel Polyäthylenglykol 400 erhielt, mitgeführt, sowie bei den meisten Versuchen eine Ratten-Gruppe mit dem Standardhypolipidämikum Clofibrat. Pro Gruppe wurden in der Regel 10 Tiere eingesetzt, denen am Ende der Behandlung das Blut nach leichter Äthernarkose aus dem Orbitalplexus entnommen wurde. Aus dem gewonnenen Ratten-Serum wurden die Serum- Lipoproteine in der präparativen Ultrazentrifuge in folgende Dichteklassen getrennt: VLDL < 1,006; LDL 1,006 bis 1,04; HDL 1,04 bis 1,21
Da nämlich im Gegensatz zum Menschen die Serumlipoproteine der Ratte etwa 4/5 HDL-Cholesterin und nur 1/5 LDL-Cholesterin enthalten und nur sehr geringe Mengen von VLDL (beim Menschen umgekehrt etwa 2/3 LDL und VLDL und nur 1/3 bis 1/4 HDL), macht die Beurteilung einer hypolipidämischen Wir- .kung an der Ratte unbedingt eine Fraktionierung des Ratten-serums in Lipoproteinklassen erforderlich. Eine bloße Erniedrigung des Serum-Total-cholesteringehaltes an der Ratte würde nämlich nur die unerwünschte Erniedrigung der bei der Ratte vorwiegenden antiatherogenen HDL-Klasse anzeigen. Eine erwünschte Erniedrigung von LDL bei gleichzeitiger erwünschter Vermehrung von HDL hätte aber keine (wesentliche) Auswirkung auf den Totalcholesteringehalt des Ratten-Serums.
Aus den in der Ultrazentrifuge isolierten LipoproteinFraktionen wurde das darin enthaltene Cholesterin vollenzymatisch nach der CHOD-PAP-Methode mittels der Testkombination von Boehringer-Mannheim bestimmt und die Werte in µg/ml Serum umgerechnet. In der angeführten Tabelle ist die Veränderung des Lipoprotein-Cholesterins in der behandelten Gruppe gegenüber einer unter gleichen Bedingungen mitgeführten Kontrollgruppe angegeben.
Veränderung in % der Lipoproteine im Ratten-Serum nach siebentägiger oraler Applikation der Verbindungen

[1] = Change of relative liver weight and liver findings in the 7-day oral rat study; type: in vivo, männlichen Wistar-Ratten; details: for % Veränderung des relativen Lebergewichtes: oral (gavage), 7 days, male Wistar rats
From the text: Die erfindungsgemäßen Verbindungen haben wertvolle therapeutische Eigenschaften. So erniedrigen sie vor allem die Konzentration von LDL und VLDL, die HDL-Fraktion aber kaum, in vielen Fällen wird diese Fraktion sogar vermehrt. Diese Verbindungen stellen daher einen wesentlichen Fortschritt gegenüber der Vergleichsverbindung Clofibrat dar, wie aus .den nachfolgend beschriebenen Daten ersichtlich ist. Sie können daher zur Prophylaxe und Regression von arteriosklerotischen Veränderungen herangezogen werden, indem sie einen kausalen Risikofaktor ausschalten. Hierzu zählen nicht nur die primären Hyperlidämien, sondern auch gewisse sekundäre Hyperlipidämien wie sie z.B. beim Diabetes vorkommen. […] Die mit einer hypolipidämischen Wirkung verbundene unerwünschte Beeinflussung der Leber zeigt sich auch in sehr starkem Maße bei der in J.Med.Chem. 18 (1975) S. 833-836 beschriebenen Vergleichsverbindung 1-(4-Methylbenzyl)-imidazol. […] Die erfindungsgemäßen Verbindungen zeigen dieses unerwünschte Verhalten nicht.
as §1

[2] = read-out: Cholesterolveränderung in %, bezogen auf die Kontrollgruppe im Serum
[3] = read-out: Cholesterolveränderung in %, bezogen auf die Kontrollgruppe in den Serum-Lipoprotein-Fraktionen HDL
[4] = read-out: Cholesterolveränderung in %, bezogen auf die Kontrollgruppe in den Serum-Lipoprotein-Fraktionen LDL
[5] = read-out: Cholesterolveränderung in %, bezogen auf die Kontrollgruppe in den Serum-Lipoprotein-Fraktionen VLDL

Row | SMILES | change in vivo at 3 mg/kg (Serum-Lipoproteine; [3]) [%] | change in vivo at 3 mg/kg (Serum-Lipoproteine; [4]) [%] | change in vivo at 3 mg/kg (Serum-Lipoproteine; [5]) [%] | change in vivo at 10 mg/kg (Serum-Lipoproteine; [2]) [%] | change in vivo at 10 mg/kg (Serum-Lipoproteine; [3]) [%] | change in vivo at 10 mg/kg (Serum-Lipoproteine; [4]) [%] | change in vivo at 10 mg/kg (Serum-Lipoproteine; [5]) [%] | change in vivo at 30 mg/kg (Serum-Lipoproteine; [4]) [%] | change in vivo at 30 mg/kg (Serum-Lipoproteine; [5]) [%] | other results
1 | Cc1ccc(Cn2ccnc2)cc1 [1-(4-Methyl-benyl)-imidazol, 1-(4-Methylbenzyl)-imidazol, reference compound] | 18 | -5 | 10 | 16 | 22 | -3 | -23 | -90 | -100 | change in vivo at 3 mg/kg (Serum-Lipoproteine; [2]): 11%; change in vivo at 30 mg/kg (Serum-Lipoproteine; [2]): -44%; change in vivo at 30 mg/kg (Serum-Lipoproteine; [3]): -24%; unerwünschte Beeinflussung der Leber ([1]; rat, in vivo): massive Hepatomegalie mit massiven Neutralfett- und Cholesterineinlagerungen
2 | Cc1cc(Cn2ccnc2)cc(Cl)c1OCc1ccc(C(=O)C(C)(C)C)cc1 [Beispiel 1, 4-[2-Chlor-4-(-imidazol-1-ylmethyl)-6-methylphenoxymethyl]-phenyl-tert.-butyl-keton] | 3 | -42 | 0 | -17 | -5 | -52 | 0 |  |  | change in vivo at 1 mg/kg (Serum-Lipoproteine; [3]): 8%; change in vivo at 1 mg/kg (Serum-Lipoproteine; [4]): -40%; change in vivo at 1 mg/kg (Serum-Lipoproteine; [5]): 0%; change in vivo at 3 mg/kg (Serum-Lipoproteine; [2]): -12%; % Veränderung des relativen Lebergewichtes ([1]; 1 mg/kg / Tag): +4%; % Veränderung des relativen Lebergewichtes ([1]; 3 mg/kg / Tag): +9%
3 | C=CCc1cc(Cn2ccnc2)cc(C)c1OCc1ccc(C(=O)C(C)(C)C)cc1 [Beispiel 1.2] |  |  |  |  |  |  |  | -39 | -31 | change in vivo at 30 mg/kg (Serum-Lipoproteine; [3]): 9%
4 | CC(C)(C)C(=O)c1ccc(COc2c(Cl)cc(Cn3ccnc3)cc2Cl)cc1 [Beispiel 1.6] |  |  |  |  | 7 | -32 |  |  |  | 
5 | C=CCc1cc(Cn2ccnc2)cc(Cl)c1OCc1ccc(C(=O)C(C)(C)C)cc1 [Beispiel 1.7] |  |  |  |  |  |  |  |  |  | change in vivo at 20 mg/kg (Serum-Lipoproteine; [2]): -18%; change in vivo at 20 mg/kg (Serum-Lipoproteine; [3]): -7%; change in vivo at 20 mg/kg (Serum-Lipoproteine; [4]): -43%
6 | COc1cc(Cn2ccnc2)cc(OC)c1OCc1ccc(C(=O)C(C)(C)C)cc1 [Beispiel 1.8] |  |  |  |  |  |  |  |  |  | change in vivo at 20 mg/kg (Serum-Lipoproteine; [2]): -19%; change in vivo at 20 mg/kg (Serum-Lipoproteine; [3]): -4%; change in vivo at 20 mg/kg (Serum-Lipoproteine; [4]): -43%; change in vivo at 20 mg/kg (Serum-Lipoproteine; [5]): -19%
7 | Cc1cc(Cn2ccnc2)cc(C)c1OCc1ccc(C(=O)C(C)(C)CCl)cc1 [Beispiel 1.16] | -11 | -32 | -32 | -15 | -1 | -52 | -24 |  |  | 
8 | Cc1cc(Cn2cncn2)cc(Cl)c1OCc1ccc(C(=O)C(C)(C)C)cc1 [Beispiel 1.19] |  |  |  | -11 |  | -29 | -35 |  |  | 
9 | Cc1cc(Cn2cccn2)cc(C)c1OCc1ccc(C(=O)C(C)(C)C)cc1 [Beispiel 1.21] |  |  |  |  |  |  |  | -35 | -62 | change in vivo at 30 mg/kg (Serum-Lipoproteine; [2]): 0%
10 | Cc1cc(Cn2ccnc2)cc(C)c1OCc1ccc(C(=O)c2ccc(Cl)cc2)cc1 [Beispiel 1.46] |  |  |  |  |  | -35 | -29 |  |  | 
11 | Cc1cc(Cn2ccnc2)cc(C)c1OCc1ccc(C2(C(C)(C)C)OCCO2)cc1 [Beispiel 1.52] |  |  |  |  |  |  |  | -23 | -36 | 
12 | Cc1cc(Cn2ccnc2)cc(C)c1OCc1ccc(C(O)C(C)(C)C)cc1 (stereo not shown) [Beispiel 2.1] |  |  |  | -22 |  | -66 | -54 |  |  | change in vivo at 1 mg/kg (Serum-Lipoproteine; [3]): 17%; change in vivo at 1 mg/kg (Serum-Lipoproteine; [4]): -53%; change in vivo at 1 mg/kg (Serum-Lipoproteine; [5]): 17%; % Veränderung des relativen Lebergewichtes ([1]; 1 mg/kg / Tag): +11%
13 | C=CCc1cc(Cn2ccnc2)cc(C)c1OCc1ccc(C(O)C(C)(C)C)cc1 (stereo not shown) [Beispiel 2.2] |  |  |  |  |  |  |  | -49 | -34 | change in vivo at 30 mg/kg (Serum-Lipoproteine; [3]): 14%
14 | CC(C)c1cc(Cn2ccnc2)cc(C(C)C)c1OCc1ccc(C(O)C(C)(C)C)cc1 (stereo not shown) [Beispiel 2.4] |  |  |  |  |  |  |  | -38 | -50 | change in vivo at 30 mg/kg (Serum-Lipoproteine; [2]): -12%
15 | Cc1cc(Cn2ccnc2)cc(C)c1OCc1ccc(C(=O)C(C)(C)C)cc1 [Beispiel 3, 4-[2,6-Dimethyl-4-(imidazol-1-ylmethyl)-phenoxymethyl]-phenyl-tert.-butyl-keton] | 2 | -36 | 17 |  | 2 | -45 | -58 |  |  | change in vivo at 1 mg/kg (Serum-Lipoproteine; [3]): 5%; change in vivo at 1 mg/kg (Serum-Lipoproteine; [4]): -33%; change in vivo at 1 mg/kg (Serum-Lipoproteine; [5]): 30%; % Veränderung des relativen Lebergewichtes ([1]; 1 mg/kg / Tag): -2%; % Veränderung des relativen Lebergewichtes ([1]; 3 mg/kg / Tag): -4%
16 | Cc1cc(Cn2ccnc2)cc(Cl)c1OCc1ccc(C(O)C(C)(C)C)cc1 (stereo not drawn) [Beispiel 5, α-Tert.-butyl-4-[2-Chlon-6-methyl-4-(imidazol-1-ylmekthyl)-phenoxymethyl]-benzylalkohol] | 18 | -47 | -10 | -23 |  | -59 | -46 |  |  | change in vivo at 1 mg/kg (Serum-Lipoproteine; [4]): -39%; change in vivo at 1 mg/kg (Serum-Lipoproteine; [5]): -13%; % Veränderung des relativen Lebergewichtes ([1]; 3 mg/kg / Tag): +13%
